From publication PMC5218480 (PLoS ONE, 2017) come the findings set out here.

The test system of this test is MV-4-11 cells. Briefly: Gene expression microarray analysis (Affymetrix PrimeView) and GSEA. The format is cell-based, human. Details: RFU PODN (11730768_x_at) / Fold change /veh PODN (11730768_x_at) / RFU LINC00158 (11744669_a_at) / Fold change /veh LINC00158 (11744669_a_at) / RFU DUSP10 (11751237_a_at) / Fold change /veh DUSP10 (11751237_a_at) / RFU ID3 (11757404_x_at) / Fold change /veh ID3 (11757404_x_at) / RFU PLEKHG5 (11737974_s_at) / Fold change /veh PLEKHG5 (11737974_s_at) / RFU LRRC4B (11730491_at) / Fold change /veh LRRC4B (11730491_at) / RFU GIMAP4 (11747438_a_at) / Fold change /veh GIMAP4 (11747438_a_at) / RFU KRT8 (11758183_x_at) / Fold change /veh KRT8 (11758183_x_at) / RFU CNN1 (11734310_a_at) / Fold change /veh CNN1 (11734310_a_at) / RFU VPS37D (11726825_at) / Fold change /veh VPS37D (11726825_at) / RFU C10orf10 (11716522_x_at) / Fold change /veh C10orf10 (11716522_x_at) / RFU KIR2DL2 /// KIR2DL4 /// KIR2DL5A /// KIR2DL5B /// KIR2DS1 /// KIR2DS2 /// KIR2DS3 /// KIR2DS4 /// KIR3DL3 /// KIR3DL3 /// KIR3DS1 (11738374_at) / Fold change /veh KIR2DL2 /// KIR2DL4 /// KIR2DL5A /// KIR2DL5B /// KIR2DS1 /// KIR2DS2 /// KIR2DS3 /// KIR2DS4 /// KIR3DL3 /// KIR3DL3 /// KIR3DS1 (11738374_at) / RFU C1QL1 (11718748_at) / Fold change /veh C1QL1 (11718748_at) / RFU TMPRSS4 (11747572_a_at) / Fold change /veh TMPRSS4 (11747572_a_at) / RFU HAMP (11756126_x_at) / Fold change /veh HAMP (11756126_x_at) / RFU RNFT2 (11725882_a_at) / Fold change /veh RNFT2 (11725882_a_at) / RFU NR4A2 (11747474_a_at) / Fold change /veh NR4A2 (11747474_a_at) / RFU ABCC12 (11746883_a_at) / Fold change /veh ABCC12 (11746883_a_at) / RFU TMEM136 (11760407_x_at) / Fold change /veh TMEM136 (11760407_x_at) / RFU CLDN22 /// WWC2 (11732394_at) / Fold change /veh CLDN22 /// WWC2 (11732394_at) / RFU HLA-DPB1 (11760878_x_at) / Fold change /veh HLA-DPB1 (11760878_x_at) / RFU SPINT1 (11716480_a_at) / Fold change /veh SPINT1 (11716480_a_at) / RFU GAP43 (11754022_s_at) / Fold change /veh GAP43 (11754022_s_at) / RFU A4GNT (11735810_at) / Fold change /veh A4GNT (11735810_at) / RFU PRB3 (11715151_x_at) / Fold change /veh PRB3 (11715151_x_at) / RFU TUBB4B (11761932_at) / Fold change /veh TUBB4B (11761932_at) / RFU CAPN14 (11732068_a_at) / Fold change /veh CAPN14 (11732068_a_at) / RFU TMCC2 (11721928_a_at) / Fold change /veh TMCC2 (11721928_a_at) / RFU IRGQ (11745062_a_at) / Fold change /veh IRGQ (11745062_a_at) / RFU FAM174B (11720279_a_at) / Fold change /veh FAM174B (11720279_a_at) / RFU TMPRSS4 (11748680_a_at) / Fold change /veh TMPRSS4 (11748680_a_at) / RFU FAM212B (11763350_a_at) / Fold change /veh FAM212B (11763350_a_at) / RFU PLEKHG5 (11743358_a_at) / Fold change /veh PLEKHG5 (11743358_a_at) / RFU ZSCAN30 (11745921_a_at) / Fold change /veh ZSCAN30 (11745921_a_at) / RFU CMKLR1 (11741424_a_at) / Fold change /veh CMKLR1 (11741424_a_at) / RFU LOC101060620 /// MAPK8IP1 (11723275_at) / Fold change /veh LOC101060620 /// MAPK8IP1 (11723275_at) / RFU SPTSSB (11747773_x_at) / Fold change /veh SPTSSB (11747773_x_at) / RFU PRSS12 (11739890_at) / Fold change /veh PRSS12 (11739890_at) / RFU BIN1 (11741810_x_at) / Fold change /veh BIN1 (11741810_x_at) / RFU WNT11 (11732464_a_at) / Fold change /veh WNT11 (11732464_a_at) / RFU C10orf10 (11716521_a_at) / Fold change /veh C10orf10 (11716521_a_at) / RFU C5orf56 (11738089_at) / Fold change /veh C5orf56 (11738089_at) / RFU CYB561 (11721691_x_at) / Fold change /veh CYB561 (11721691_x_at) / RFU ANKRD19P (11752326_a_at) / Fold change /veh ANKRD19P (11752326_a_at) / RFU OR2T12 /// OR2T33 /// OR2T8 (11738714_s_at) / Fold change /veh OR2T12 /// OR2T33 /// OR2T8 (11738714_s_at) / RFU VCAN (11748164_a_at) / Fold change /veh VCAN (11748164_a_at) / RFU JSRP1 (11732532_at) / Fold change /veh JSRP1 (11732532_at) / RFU KRTAP10-11 (11738290_x_at) / Fold change /veh KRTAP10-11 (11738290_x_at) / RFU MYO3A (11730013_a_at) / Fold change /veh MYO3A (11730013_a_at) / RFU EBF3 (11725865_a_at) / Fold change /veh EBF3 (11725865_a_at) / RFU CAMK2N1 (11719241_x_at) / Fold change /veh CAMK2N1 (11719241_x_at) / RFU C5orf56 (11738088_a_at) / Fold change /veh C5orf56 (11738088_a_at) / RFU OLFML3 (11715873_a_at) / Fold change /veh OLFML3 (11715873_a_at) / RFU LOC100653217 /// NTM (11731650_a_at) / Fold change /veh LOC100653217 /// NTM (11731650_a_at) / RFU MAPK11 (11762145_a_at) / Fold change /veh MAPK11 (11762145_a_at) / RFU FIZ1 (11724087_x_at) / Fold change /veh FIZ1 (11724087_x_at) / RFU OASL (11726364_x_at) / Fold change /veh OASL (11726364_x_at) / RFU SOX15 (11748057_x_at) / Fold change /veh SOX15 (11748057_x_at) / RFU CD79A (11719716_a_at) / Fold change /veh CD79A (11719716_a_at) / RFU HIST1H1D (11736915_at) / Fold change /veh HIST1H1D (11736915_at) / RFU CASKIN2 (11723855_a_at) / Fold change /veh CASKIN2 (11723855_a_at) / RFU LOC730098 (11760151_x_at) / Fold change /veh LOC730098 (11760151_x_at) / RFU OR4N2 (11742367_at) / Fold change /veh OR4N2 (11742367_at) / RFU PRRT2 (11749266_a_at) / Fold change /veh PRRT2 (11749266_a_at) / RFU SNX32 (11753110_a_at) / Fold change /veh SNX32 (11753110_a_at) / RFU CDHR5 (11726645_a_at) / Fold change /veh CDHR5 (11726645_a_at) / RFU RCAN1 (11760418_a_at) / Fold change /veh RCAN1 (11760418_a_at) / RFU FAM167A (11723789_a_at) / Fold change /veh FAM167A (11723789_a_at) / RFU FAM26E (11764081_at) / Fold change /veh FAM26E (11764081_at) / RFU ISYNA1 (11749810_s_at) / Fold change /veh ISYNA1 (11749810_s_at) / RFU ACY1 (11761880_at) / Fold change /veh ACY1 (11761880_at) / RFU 11764098_at / Fold change /veh 11764098_at / RFU SAMD14 (11745864_x_at) / Fold change /veh SAMD14 (11745864_x_at) / RFU NPB (11741838_a_at) / Fold change /veh NPB (11741838_a_at) / RFU TMPRSS6 (11731388_a_at) / Fold change /veh TMPRSS6 (11731388_a_at) / RFU KRTAP10-2 (11738614_at) / Fold change /veh KRTAP10-2 (11738614_at) / RFU ARHGAP8 /// PRR5-ARHGAP8 (11727945_x_at) / Fold change /veh ARHGAP8 /// PRR5-ARHGAP8 (11727945_x_at) / RFU KRTAP5-7 /// NADSYN1 (11734609_at) / Fold change /veh KRTAP5-7 /// NADSYN1 (11734609_at) / RFU RASL12 (11751679_a_at) / Fold change /veh RASL12 (11751679_a_at) / RFU CDKN2B (11736163_a_at) / Fold change /veh CDKN2B (11736163_a_at) / RFU PRF1 (11729649_at) / Fold change /veh PRF1 (11729649_at) / RFU, ZNF638 /// ZNF638-IT1 / Fold change vs veh, ZNF638 /// ZNF638-IT1 / RFU, PANK3 / Fold change vs veh, PANK3 / RFU, SH3YL1 / Fold change vs veh, SH3YL1 / RFU, ZEB2 / Fold change vs veh, ZEB2 / RFU, NRIP1 / Fold change vs veh, NRIP1 / RFU, PTTG1IP / Fold change vs veh, PTTG1IP / RFU, CAPN2 / Fold change vs veh, CAPN2 / RFU, MED14 / Fold change vs veh, MED14 / RFU, SNORA58 / Fold change vs veh, SNORA58 / RFU, C1orf63 / Fold change vs veh, C1orf63 / RFU, LRRFIP1 / Fold change vs veh, LRRFIP1 / RFU, NDUFAF7 / Fold change vs veh, NDUFAF7 / RFU, SLC12A2 / Fold change vs veh, SLC12A2 / RFU, IBTK / Fold change vs veh, IBTK / RFU, ESF1 / Fold change vs veh, ESF1 / Fold change vs veh, TMEM50B / RFU, TAOK1 / Fold change vs veh, TAOK1 / RFU, ACBD3 / Fold change vs veh, ACBD3 / RFU, TMA16 / Fold change vs veh, TMA16 / RFU, RWDD3 / Fold change vs veh, RWDD3 / RFU, BCAT1 / Fold change vs veh, BCAT1 / RFU, EDEM3 / Fold change vs veh, EDEM3 / RFU, TMEM33 / Fold change vs veh, TMEM33 / RFU, WDR75 / Fold change vs veh, WDR75 / RFU, AHCTF1 / Fold change vs veh, AHCTF1 / RFU, TFRC / Fold change vs veh, TFRC / RFU, ZDHHC17 / Fold change vs veh, ZDHHC17 / RFU, NOM1 / Fold change vs veh, NOM1 / RFU, ARL8B / Fold change vs veh, ARL8B / RFU, ZBTB11 / Fold change vs veh, ZBTB11 / RFU, TAMM41 / Fold change vs veh, TAMM41 / RFU, KIAA1704 /// LOC100996395 / Fold change vs veh, KIAA1704 /// LOC100996395 / RFU, ING1 / Fold change vs veh, ING1 / RFU, TRMT61B / Fold change vs veh, TRMT61B / RFU, FUBP3 / Fold change vs veh, FUBP3 / RFU, TP53 / Fold change vs veh, TP53 / RFU, TNKS2 / Fold change vs veh, TNKS2 / RFU, ZFP14 / Fold change vs veh, ZFP14 / RFU, ACTR2 / Fold change vs veh, ACTR2 / RFU, PPP3R1 / Fold change vs veh, PPP3R1 / RFU, PIK3R1 / Fold change vs veh, PIK3R1 / RFU, HNRNPA1 / Fold change vs veh, HNRNPA1 / RFU, RNF170 / Fold change vs veh, RNF170 / RFU, ZNF28 / Fold change vs veh, ZNF28 / RFU, RNGTT / Fold change vs veh, RNGTT / RFU, OGT / Fold change vs veh, OGT / RFU, BRD1 / Fold change vs veh, BRD1 / RFU, MARS / Fold change vs veh, MARS / RFU, ZNF655 / Fold change vs veh, ZNF655 / RFU, FAHD1 / Fold change vs veh, FAHD1 / RFU, BDP1 / Fold change vs veh, BDP1 / RFU, LRRCC1 / Fold change vs veh, LRRCC1 / RFU, ARID1A / Fold change vs veh, ARID1A / RFU, ZNF146 / Fold change vs veh, ZNF146 / RFU, ZNF330 / Fold change vs veh, ZNF330 / RFU, GPN3 / Fold change vs veh, GPN3 / RFU, C9orf123 / Fold change vs veh, C9orf123 / RFU, N4BP2L2 / Fold change vs veh, N4BP2L2 / RFU, ARFIP1 / Fold change vs veh, ARFIP1 / RFU, FAM179B / Fold change vs veh, FAM179B / RFU, BCL10 / Fold change vs veh, BCL10 / RFU, UHRF1BP1L / Fold change vs veh, UHRF1BP1L / RFU, BET1 / Fold change vs veh, BET1 / RFU, CNOT2 / Fold change vs veh, CNOT2 / RFU, ZNF268 / Fold change vs veh, ZNF268 / Fold change vs veh, ZNF507 / RFU, DGCR2 / Fold change vs veh, DGCR2 / RFU, WDSUB1 / Fold change vs veh, WDSUB1 / Fold change vs veh, HSP90B1 /// MIR3652 / RFU, ADSS / Fold change vs veh, ADSS / RFU, GK / Fold change vs veh, GK / RFU, ZNF148 / Fold change vs veh, ZNF148 / RFU, TAF9 / Fold change vs veh, TAF9 / RFU, SLC1A5 / Fold change vs veh, SLC1A5 / RFU, SLMO2 / Fold change vs veh, SLMO2 / RFU, ABCC4 / Fold change vs veh, ABCC4 / RFU, LOC101060439 /// RAP1B / Fold change vs veh, LOC101060439 /// RAP1B / RFU, RFX7 / Fold change vs veh, RFX7 / RFU, GTPBP10 / Fold change vs veh, GTPBP10 / RFU, CNEP1R1 / Fold change vs veh, CNEP1R1 / RFU, BIVM-ERCC5 /// ERCC5 / Fold change vs veh, BIVM-ERCC5 /// ERCC5 / RFU, ILF3 / Fold change vs veh, ILF3 / RFU 11762660_at / Fold change /veh 11762660_at / RFU VCAN (11757783_s_at) / Fold change /veh VCAN (11757783_s_at) / RFU DDX43 (11728927_at) / Fold change /veh DDX43 (11728927_at) / RFU KRT8 (11758188_x_at) / Fold change /veh KRT8 (11758188_x_at) / RFU NKD1 (11759106_at) / Fold change /veh NKD1 (11759106_at) / RFU SRD5A1 (11742802_a_at) / Fold change /veh SRD5A1 (11742802_a_at) / RFU TPSAB1 /// TPSB2 (11721975_s_at) / Fold change /veh TPSAB1 /// TPSB2 (11721975_s_at) / RFU GSTM3 (11746129_a_at) / Fold change /veh GSTM3 (11746129_a_at) / RFU IL23R (11737362_x_at) / Fold change /veh IL23R (11737362_x_at) / RFU TMEM51 (11727254_a_at) / Fold change /veh TMEM51 (11727254_a_at) / RFU PIWIL2 (11732686_x_at) / Fold change /veh PIWIL2 (11732686_x_at) / RFU ORM1 (11744905_x_at) / Fold change /veh ORM1 (11744905_x_at) / RFU CCDC152 (11743942_at) / Fold change /veh CCDC152 (11743942_at) / RFU ECM1 (11717891_a_at) / Fold change /veh ECM1 (11717891_a_at) / RFU IL23R (11748794_a_at) / Fold change /veh IL23R (11748794_a_at) / RFU TNFAIP8L3 (11732012_x_at) / Fold change /veh TNFAIP8L3 (11732012_x_at) / RFU MBOAT4 (11741988_at) / Fold change /veh MBOAT4 (11741988_at) / RFU 11764193_at / Fold change /veh 11764193_at / RFU TMEM53 (11763286_at) / Fold change /veh TMEM53 (11763286_at) / RFU MAGEB2 (11727129_at) / Fold change /veh MAGEB2 (11727129_at) / RFU TMEM200A (11744735_a_at) / Fold change /veh TMEM200A (11744735_a_at) / RFU CCDC152 (11751479_a_at) / Fold change /veh CCDC152 (11751479_a_at) / RFU FAM211A (11726209_a_at) / Fold change /veh FAM211A (11726209_a_at) / RFU RGS16 (11746705_a_at) / Fold change /veh RGS16 (11746705_a_at) / RFU VCAN (11755009_s_at) / Fold change /veh VCAN (11755009_s_at) / RFU RHOB (11743442_s_at) / Fold change /veh RHOB (11743442_s_at) / RFU RGS16 (11720943_a_at) / Fold change /veh RGS16 (11720943_a_at) / RFU RGS16 (11720944_at) / Fold change /veh RGS16 (11720944_at) / RFU, VPS4B / Fold change vs veh, VPS4B / RFU, CREB1 / Fold change vs veh, CREB1 / RFU, DNAJC13 / Fold change vs veh, DNAJC13 / RFU, GNAQ / Fold change vs veh, GNAQ / RFU, CDK5R1 / Fold change vs veh, CDK5R1 / RFU, ZRANB3 / Fold change vs veh, ZRANB3 / RFU, CUL4A / Fold change vs veh, CUL4A / RFU, CCNY / Fold change vs veh, CCNY / RFU, UFL1 / Fold change vs veh, UFL1 / RFU, COG3 / Fold change vs veh, COG3 / RFU, DIAPH2 / Fold change vs veh, DIAPH2 / RFU, SKA2 / Fold change vs veh, SKA2 / RFU, AFF3 / Fold change vs veh, AFF3 / RFU, LMF1 / Fold change vs veh, LMF1 / RFU, IPO11 / Fold change vs veh, IPO11 / RFU, DFFB / Fold change vs veh, DFFB / RFU, FOXP1 / Fold change vs veh, FOXP1 / RFU, CARD8 / Fold change vs veh, CARD8 / RFU, STRN3 / Fold change vs veh, STRN3 / RFU, ADK / Fold change vs veh, ADK / RFU, RASSF2 / Fold change vs veh, RASSF2 / RFU, WIPF1 / Fold change vs veh, WIPF1 / RFU, LARP1B / Fold change vs veh, LARP1B / RFU, RASA1 / Fold change vs veh, RASA1 / RFU, RB1 / Fold change vs veh, RB1 / RFU, PPFIA1 / Fold change vs veh, PPFIA1 / RFU, MAT2A / Fold change vs veh, MAT2A / RFU, CCT5 / Fold change vs veh, CCT5 / RFU, WDR92 / Fold change vs veh, WDR92 / RFU, CUX1 / Fold change vs veh, CUX1 / RFU, TTC7A / Fold change vs veh, TTC7A / RFU, TMEM135 / Fold change vs veh, TMEM135 / RFU, DEPTOR / Fold change vs veh, DEPTOR / RFU, CPM / Fold change vs veh, CPM / RFU, DNAJB6 / Fold change vs veh, DNAJB6 / RFU, CACNA2D3 / Fold change vs veh, CACNA2D3 / RFU, DTX4 / Fold change vs veh, DTX4 / RFU, TFCP2 / Fold change vs veh, TFCP2 / RFU, GMCL1 /// GMCL1P1 / Fold change vs veh, GMCL1 /// GMCL1P1 / RFU, AEBP2 / Fold change vs veh, AEBP2 / RFU, SNHG1 /// SNORD22 /// SNORD25 /// SNORD26 /// SNORD27 /// SNORD28 /// SNORD29 /// SNORD31 / Fold change vs veh, SNHG1 /// SNORD22 /// SNORD25 /// SNORD26 /// SNORD27 /// SNORD28 /// SNORD29 /// SNORD31 / Fold change (Aza/veh), C12orf56 (ProbeSet 11735607_a_at) / Fold change (ACY-1035/veh), C12orf56 (ProbeSet 11735607_a_at) / Fold change (Aza/veh), FGFR1OP (ProbeSet 11751329_s_at) / Fold change (ACY-1035/veh), FGFR1OP (ProbeSet 11751329_s_at) / Fold change (Aza/veh), VPS36 (ProbeSet 11739960_a_at) / Fold change (ACY-1035/veh), VPS36 (ProbeSet 11739960_a_at) / RFU SYPL1 (11715823_x_at) / Fold change /veh SYPL1 (11715823_x_at) / RFU IGFBP7 (11715501_s_at) / Fold change /veh IGFBP7 (11715501_s_at) / RFU REEP3 (11722064_at) / Fold change /veh REEP3 (11722064_at) / RFU IGLL1 (11728026_x_at) / Fold change /veh IGLL1 (11728026_x_at): dose or concentration left out as unconfirmed. The settings on record: ProbeSet 11743580_s_at; LIST B.

In the case of `Nc1ccc(-c2cccs2)cc1NC(=O)c1ccc2c(c1)cc(C1CC1)n2CCN1CCOCC1` [ACY-1035], the “RFU, ACTR2” value is recorded as 854.57 RFU.
